Values quoted from earlier work as cited in article PMC4448982, “LP-925219 maximizes urinary glucose excretion in mice by inhibiting both renal SGLT1 and SGLT2” (Pharmacology Research & Perspectives, 2015).
Like-named read-outs stand apart in the source and are kept apart here.

Columns and labels:
SGLT2 = system: SGLT2; design: method as in Rieg et al. [2014]; conditions: ref Rieg et al. [2014], cited from earlier work
[1] = design: method as in Powell et al. [2014]; conditions: mouse; ref Powell et al. [2014]; cited from earlier work
[2] = design: method as in Powell et al. [2014]; conditions: human; ref Powell et al. [2014]; cited from earlier work

SMILES: OC[C@H]1O[C@@H](c2ccc(Cl)c(Cc3ccc(O[C@H]4CCOC4)cc3)c2)[C@H](O)[C@@H](O)[C@@H]1O [empagliflozin]
- reduction of glucose reabsorption (SGLT2; SGLT1 KO mice): 100%
- reduction of glucose reabsorption (SGLT2; WT mice): 56%

SMILES: CCOc1ccc(Cc2cc([C@@H]3O[C@H](SC)[C@@H](O)[C@H](O)[C@H]3O)ccc2Cl)cc1 [sotagliflozin]
- plasma protein binding [1]: > 90%
- plasma protein binding [2]: > 90%
